Assay [1] concerns the target T1, Alpha-2C adrenergic receptor (Homo sapiens, UniProt P18825).
T1 sequence (P18825 whole entry): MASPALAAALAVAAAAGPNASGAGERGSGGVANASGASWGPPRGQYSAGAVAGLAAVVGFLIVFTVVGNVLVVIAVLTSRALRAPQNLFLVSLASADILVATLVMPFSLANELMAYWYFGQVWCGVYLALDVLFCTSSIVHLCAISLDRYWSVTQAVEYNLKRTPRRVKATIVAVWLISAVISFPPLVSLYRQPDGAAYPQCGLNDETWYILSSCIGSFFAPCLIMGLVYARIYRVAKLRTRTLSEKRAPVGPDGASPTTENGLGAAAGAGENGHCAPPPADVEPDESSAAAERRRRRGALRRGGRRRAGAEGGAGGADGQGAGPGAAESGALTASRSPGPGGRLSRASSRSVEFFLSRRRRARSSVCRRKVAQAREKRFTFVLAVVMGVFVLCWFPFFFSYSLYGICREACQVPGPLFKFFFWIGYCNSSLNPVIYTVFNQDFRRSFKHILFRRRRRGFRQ
Description: DRUGMATRIX: Adrenergic Alpha-2C radioligand binding (ligand: [3H] MK-912). It is filed as cell membranes, Sf9, Membrane.

Assay [2] concerns the target T2, Muscarinic acetylcholine receptor M5 (Homo sapiens, UniProt P08912). Note: in other assays of this panel Not Active means under 50% inhibition at 10 µM.
T2 sequence (P08912 whole entry): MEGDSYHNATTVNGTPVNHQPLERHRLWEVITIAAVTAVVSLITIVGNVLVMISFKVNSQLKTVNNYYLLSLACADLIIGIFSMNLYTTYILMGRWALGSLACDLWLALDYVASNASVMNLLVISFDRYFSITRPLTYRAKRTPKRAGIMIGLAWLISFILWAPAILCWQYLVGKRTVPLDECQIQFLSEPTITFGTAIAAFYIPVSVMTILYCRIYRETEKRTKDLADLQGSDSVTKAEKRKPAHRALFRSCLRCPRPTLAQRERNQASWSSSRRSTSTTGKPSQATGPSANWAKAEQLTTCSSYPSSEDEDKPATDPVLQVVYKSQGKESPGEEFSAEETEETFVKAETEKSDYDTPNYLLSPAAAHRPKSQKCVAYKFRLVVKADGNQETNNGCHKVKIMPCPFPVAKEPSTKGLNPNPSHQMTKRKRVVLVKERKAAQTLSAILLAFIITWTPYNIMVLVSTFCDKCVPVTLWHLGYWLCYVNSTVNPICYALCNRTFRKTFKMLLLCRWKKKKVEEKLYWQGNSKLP
The class given is cell membranes, CHO-K1, Membrane.

Assay [3] concerns the target Platelet-activating factor receptor (Homo sapiens, UniProt P25105). It is filed as tissue-based. Note: in other assays of this panel Not Active means under 50% inhibition at 10 µM.
For assay [4], the target named is Epidermal growth factor receptor (Homo sapiens, UniProt P00533). Description: DRUGMATRIX: Protein Tyrosine Kinase, EGF Receptor enzyme inhibition (substrate: Poly(Glu:Tyr)). The class given is cell-based, Insect cells. Particulars: insect cells, Not Active = under 50% inhibition at 10 µM.
In assay [5] the target is T3, Receptor-type tyrosine-protein phosphatase C (Homo sapiens, UniProt P08575).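 Note: inhibition of CD45 enzyme activity measured using DiFMUP as substrate; in other assays of this panel Not Active means under 50% inhibition at 10 µM.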
T3 sequence (P08575 whole entry): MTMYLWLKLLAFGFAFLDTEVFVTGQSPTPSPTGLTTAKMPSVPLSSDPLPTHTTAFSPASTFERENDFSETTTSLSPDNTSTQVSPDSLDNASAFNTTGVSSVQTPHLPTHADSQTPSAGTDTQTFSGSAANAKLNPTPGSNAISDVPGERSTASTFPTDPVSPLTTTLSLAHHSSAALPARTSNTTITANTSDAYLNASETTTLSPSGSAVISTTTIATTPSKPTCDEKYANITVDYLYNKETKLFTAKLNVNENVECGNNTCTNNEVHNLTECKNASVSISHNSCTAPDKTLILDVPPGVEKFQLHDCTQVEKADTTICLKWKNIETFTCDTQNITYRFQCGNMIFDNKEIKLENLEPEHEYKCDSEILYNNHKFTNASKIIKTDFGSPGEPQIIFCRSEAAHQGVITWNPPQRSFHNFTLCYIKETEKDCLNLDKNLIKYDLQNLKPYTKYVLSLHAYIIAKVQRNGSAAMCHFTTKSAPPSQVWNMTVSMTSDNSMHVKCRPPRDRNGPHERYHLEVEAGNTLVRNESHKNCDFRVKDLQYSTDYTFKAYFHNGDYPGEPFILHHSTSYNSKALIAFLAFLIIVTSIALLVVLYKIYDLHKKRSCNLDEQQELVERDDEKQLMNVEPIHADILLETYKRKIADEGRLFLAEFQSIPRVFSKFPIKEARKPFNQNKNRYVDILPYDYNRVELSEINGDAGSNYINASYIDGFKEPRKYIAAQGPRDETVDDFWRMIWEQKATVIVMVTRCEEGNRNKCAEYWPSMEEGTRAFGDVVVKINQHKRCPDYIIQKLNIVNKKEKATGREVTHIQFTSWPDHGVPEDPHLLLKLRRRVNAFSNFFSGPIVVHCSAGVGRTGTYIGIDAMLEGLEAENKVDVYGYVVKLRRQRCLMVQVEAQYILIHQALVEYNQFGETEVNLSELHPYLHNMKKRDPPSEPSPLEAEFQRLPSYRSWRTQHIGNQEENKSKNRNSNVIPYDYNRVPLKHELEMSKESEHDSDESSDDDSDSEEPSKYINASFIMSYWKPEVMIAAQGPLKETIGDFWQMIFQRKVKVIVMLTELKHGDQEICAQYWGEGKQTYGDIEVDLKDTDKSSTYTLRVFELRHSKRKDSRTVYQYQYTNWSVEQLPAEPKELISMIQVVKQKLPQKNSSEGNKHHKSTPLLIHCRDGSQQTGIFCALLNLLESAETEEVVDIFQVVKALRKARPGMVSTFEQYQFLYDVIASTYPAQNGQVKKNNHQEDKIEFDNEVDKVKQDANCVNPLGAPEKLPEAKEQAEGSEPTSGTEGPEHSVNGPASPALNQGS
More on the design: species or system Escherichia coli.

Sequence of Platelet-activating factor receptor (P25105 whole entry): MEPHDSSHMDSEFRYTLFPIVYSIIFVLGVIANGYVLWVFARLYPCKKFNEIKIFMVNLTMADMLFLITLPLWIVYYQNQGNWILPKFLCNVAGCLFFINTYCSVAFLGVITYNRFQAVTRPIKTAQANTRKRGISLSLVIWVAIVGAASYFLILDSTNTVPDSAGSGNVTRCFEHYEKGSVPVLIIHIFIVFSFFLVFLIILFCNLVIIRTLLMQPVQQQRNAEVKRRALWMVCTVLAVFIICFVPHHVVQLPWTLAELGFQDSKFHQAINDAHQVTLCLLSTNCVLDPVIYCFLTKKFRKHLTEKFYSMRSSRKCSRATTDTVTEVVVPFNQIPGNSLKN

Take `Nc1nc2c(ncn2COCCO)c(=O)[nH]1` [ACYCLOVIR]: the IC50 entry in assay [1] (sf9), in assay [2] (cho-k1), in assay [3], in assay [4] and in assay [5] was “Not Active” each time.
For the molecule `CC(C)CN(C[C@@H](O)[C@H](Cc1ccccc1)NC(=O)O[C@H]1CCOC1)S(=O)(=O)c1ccc(N)cc1`, the IC50 result in assay [1] (sf9), in assay [2] (cho-k1), in assay [3], in assay [4] and in assay [5] was “Not Active” each time.
Turning to `CN(C)CCCN1c2ccccc2Sc2ccccc21` [PROMAZINE], the IC50 in assay [1] (read-out: IC50) is 253 nM; in assay [2] (read-out: IC50), 64 nM; in assay [3] it was “Not Active”; in assay [4], “Not Active”; in assay [5], “Not Active”. Moreover, the results for the Ki in assay [1] (read-out: Ki) and in assay [2] (read-out: Ki) were 37 nM and 46 nM, respectively.
As to `Cc1c(C)c2c(c(C)c1O)CC[C@@](C)(CCC[C@H](C)CCC[C@H](C)CCCC(C)C)O2` [ALPHA-TOCOPHEROL], the IC50 result in assay [1] (sf9), in assay [2] (cho-k1), in assay [3], in assay [4] and in assay [5] was “Not Active” each time.
Turning to `Cc1ccc(/N=C/N(C)/C=N/c2ccc(C)cc2C)c(C)c1` [AMITRAZ], the IC50 result in assay [1] (sf9), in assay [2] (cho-k1), in assay [3], in assay [4] and in assay [5] was “Not Active” each time.
For the molecule `CN(C)c1nc(N(C)C)nc(N(C)C)n1` [ALTRETAMINE], the IC50 result in assay [1] (sf9), in assay [2] (cho-k1), in assay [3], in assay [4] and in assay [5] was “Not Active” throughout.
Turning to `CNCCCN1c2ccccc2CCc2ccccc21` [DESIPRAMINE], the IC50 entry in assay [1] (sf9), in assay [2] (cho-k1), in assay [3], in assay [4] and in assay [5] was “Not Active” throughout.
Regarding CADMIUM ACETATE, the 50% inhibitory concentration (IC50) result in assay [1] (sf9) is “Not Active”; in assay [2] (cho-k1), “Not Active”; in assay [3] it was “Not Active”; in assay [4] (read-out: IC50), 244 nM; in assay [5], “Not Active”. Moreover, the Ki entry in assay [1] (sf9), in assay [2] (cho-k1), in assay [3] and in assay [5] was “Not Active” each time.
Turning to `COc1cc2c3cc1Oc1cc(ccc1O)C[C@@H]1c4c(cc(OC)c(O)c4Oc4ccc(cc4)C[C@@H]3N(C)CC2)CC[N+]1(C)C.[Cl-]`, the IC50 result in assay [1] (sf9), in assay [2] (cho-k1), in assay [3], in assay [4] and in assay [5] was “Not Active” each time.
`CN(Cc1ccc(C(C)(C)C)cc1)Cc1cccc2ccccc12` [BUTENAFINE]: the 50% inhibitory concentration (IC50) entry in assay [1] (sf9), in assay [2] (cho-k1), in assay [3], in assay [4] and in assay [5] was “Not Active” in each case.
`C[C@H](CCC(=O)O)[C@H]1CC[C@H]2[C@@H]3[C@H](O)C[C@@H]4C[C@H](O)CC[C@]4(C)[C@H]3C[C@H](O)[C@]12C` [CHOLIC ACID]: the IC50 entry in assay [1] (sf9), in assay [2] (cho-k1), in assay [3], in assay [4] and in assay [5] was “Not Active” each time.
In the case of `CC1=C2C(=CO[C@H](C)[C@H]2C)C(O)=C(C(=O)O)C1=O` [CITRININ], the half-maximal inhibitory concentration (IC50) result in assay [1] (sf9), in assay [2] (cho-k1), in assay [3], in assay [4] and in assay [5] was “Not Active” in each case.
As to `O=C(CCCN1CC=C(n2c(=O)[nH]c3ccccc32)CC1)c1ccc(F)cc1` [DROPERIDOL], the IC50 in assay [1] (read-out: IC50) was 1760 nM; in assay [2] (read-out: IC50), 2300 nM; in assay [3] it was “Not Active”; in assay [4], “Not Active”; in assay [5] it was “Not Active”. Besides, the Ki was determined as 256 nM in assay [1] (read-out: Ki) and 1650 nM in assay [2] (read-out: Ki).
Turning to `CCCCc1nc(Cl)c(CO)n1Cc1ccc(-c2ccccc2-c2nnn[nH]2)cc1` [LOSARTAN], the IC50 entry in assay [1] (sf9), in assay [2] (cho-k1), in assay [3], in assay [4] and in assay [5] was “Not Active” each time.
As to `Cc1cc(C2CCCCC2)n(O)c(=O)c1` [CICLOPIROX], the IC50 entry in assay [1] (sf9), in assay [2] (cho-k1), in assay [3], in assay [4] and in assay [5] was “Not Active” throughout.
In the case of `CCCCN1CCCC[C@H]1C(=O)Nc1c(C)cccc1C` [LEVOBUPIVACAINE], the IC50 entry in assay [1] (sf9), in assay [2] (cho-k1), in assay [3], in assay [4] and in assay [5] was “Not Active” throughout.
For the molecule `CC[C@@]1(O)C[C@H](O[C@H]2C[C@H](N(C)C)[C@H](O[C@H]3C[C@H](O)[C@H](O[C@H]4CCC(=O)[C@H](C)O4)[C@H](C)O3)[C@H](C)O2)c2c(cc3c(c2O)C(=O)c2c(O)cccc2C3=O)[C@H]1C(=O)OC` [ACLARUBICIN], the IC50 result in assay [1] (sf9), in assay [2] (cho-k1), in assay [3], in assay [4] and in assay [5] was “Not Active” each time.
Take `CC(=O)O[C@@]12CO[C@@H]1C[C@H](O)[C@@]1(C)C(=O)[C@H](O)C3=C(C)[C@@H](OC(=O)[C@H](O)[C@@H](NC(=O)OC(C)(C)C)c4ccccc4)C[C@@](O)([C@@H](OC(=O)c4ccccc4)[C@H]21)C3(C)C.O.O.O` [DOCETAXEL]: the IC50 result in assay [1] (sf9), in assay [2] (cho-k1), in assay [3], in assay [4] and in assay [5] was “Not Active” each time.
`N=C(N)NCCN1CCCCCCC1` [GUANETHIDINE]: the IC50 result in assay [1] (sf9), in assay [2] (cho-k1), in assay [3], in assay [4] and in assay [5] was “Not Active” in each case.
Turning to `CNCCc1ccccn1` [BETAHISTINE], the IC50 result in assay [1] (sf9), in assay [2] (cho-k1), in assay [3], in assay [4] and in assay [5] was “Not Active” in each case.

As a reminder, the IC50 is the point on the concentration scale where inhibition reaches its midpoint. What is called Ki is the equilibrium dissociation constant of an inhibitor or competing ligand from its target.

Values taken from ChEMBL document CHEMBL1909046, “DrugMatrix in vitro pharmacology data”.
